Values joined by “and” are separate entries in the source; they are usually repeats but may differ in a detail not shown here. Identical values can stand only once. Inconclusive results and toxic doses are left out. How the source made its calls: active means survival T/C of 150% or more; inactive means T/C below 125% in these data.
System: P388 leukemia ip, CD2F1 mice, survival T/C
Test: NCI In Vivo Anticancer Drug Screen. Data for tumor model P388 Leukemia (intraperitoneal) in CD2F1 (CDF1) mice
Conditions: endpoint: median survival time, higher = longer survival
Summary of the method: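 Mice carrying the transplanted tumor received test compound or vehicle. Survival was recorded in each group, and the value is the treated-group measurement divided by that of the vehicle-treated control group.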

[1] = dose: 50.0 mg/kg/injection, schedule: Q01DX009 (ip), vehicle: saline
[2] = dose: 100.0 mg/kg/injection, schedule: Q01DX009 (ip), vehicle: saline
[3] = dose: 200.0 mg/kg/injection, schedule: Q01DX009 (ip), vehicle: saline
[4] = dose: 50.0 mg/kg/injection, schedule: Q01DX009 (ip), vehicle: saline with Tween-80
[5] = dose: 100.0 mg/kg/injection, schedule: Q01DX009 (ip), vehicle: saline with Tween-80
[6] = dose: 200.0 mg/kg/injection, schedule: Q01DX009 (ip), vehicle: saline with Tween-80

Measured: T/C

CN(C)C(=O)On1cc(Cl)cc1C#N
inactive: dose: 6.25 mg/kg/injection, schedule: Q04DX003 (ip), vehicle: Klucel (hydroxypropylcellulose) (HPC) 102 % of control | dose: 12.5 mg/kg/injection, schedule: Q04DX003 (ip), vehicle: Klucel (hydroxypropylcellulose) (HPC) 98 % of control | dose: 25.0 mg/kg/injection, schedule: Q04DX003 (ip), vehicle: Klucel (hydroxypropylcellulose) (HPC) 100 % of control | dose: 75.0 mg/kg/injection, schedule: Q04DX003 (ip), vehicle: Klucel (hydroxypropylcellulose) (HPC) 98 % of control

C=CCOCC1CO1 (centres undefined)
inactive: dose: 12.5 mg/kg/injection, schedule: Q01DX009 (ip), vehicle: saline 106 % of control | dose: 25.0 mg/kg/injection, schedule: Q01DX009 (ip), vehicle: saline 97 % of control | [1] 103 % of control | dose: 50.0 mg/kg/injection, schedule: Q04DX003 (ip), vehicle: saline with Tween-80 100 % of control | [2] 100 % of control | dose: 100.0 mg/kg/injection, schedule: Q04DX003 (ip), vehicle: saline with Tween-80 90 % of control | dose: 132.0 mg/kg/injection, schedule: Q04DX003 (ip), vehicle: saline with Tween-80 109 % of control | [3] 100 % of control | dose: 200.0 mg/kg/injection, schedule: Q04DX003 (ip), vehicle: saline with Tween-80 109 % of control | dose: 300.0 mg/kg/injection, schedule: Q04DX003 (ip), vehicle: saline with Tween-80 122 % of control

C=C1C(=O)OC2CC(C)C3C(OC(C)=O)CC(OC(C)=O)C3(C)CC12 (centres undefined)
inactive: dose: 12.5 mg/kg/injection, schedule: Q04DX002 (ip), vehicle: saline with Tween-80 99 % of control | dose: 25.0 mg/kg/injection, schedule: Q04DX002 (ip), vehicle: saline with Tween-80 106 % of control | dose: 50.0 mg/kg/injection, schedule: Q04DX002 (ip), vehicle: saline with Tween-80 103 % of control

C[N+]12OC3CCC(O)CC1CCCC2C3 (centres undefined)
inactive: dose: 100.0 mg/kg/injection, schedule: Q01DX001 (ip), vehicle: water 100 % of control

COc1cc2c(c(OC)c1OC)-c1ccc(OC)c(=O)cc1[C@@H](NC(=O)CCl)CC2
active: dose: 0.12 mg/kg/injection, schedule: Q01DX009 (ip), vehicle: saline with Tween-80 166 % of control | dose: 0.13 mg/kg/injection, schedule: Q01DX009 (ip), vehicle: saline with Tween-80 156 % of control | dose: 0.25 mg/kg/injection, schedule: Q01DX009 (ip), vehicle: saline with Tween-80 153 % of control and 173 % of control | dose: 1.25 mg/kg/injection, schedule: Q01DX009 (ip), vehicle: saline 167 % of control
inactive: dose: 0.06 mg/kg/injection, schedule: Q01DX009 (ip), vehicle: Klucel (hydroxypropylcellulose) (HPC) 114 % of control | dose: 0.15 mg/kg/injection, schedule: Q01DX009 (ip), vehicle: saline 103 % of control | dose: 0.25 mg/kg/injection, schedule: Q01DX009 (ip), vehicle: Klucel (hydroxypropylcellulose) (HPC) 115 % of control | dose: 0.31 mg/kg/injection, schedule: Q01DX009 (ip), vehicle: saline 122 % of control | dose: 0.5 mg/kg/injection, schedule: Q01DX009 (ip), vehicle: saline with Tween-80 93 % of control

CC(NC(=O)OC(C)(C)C)C(=O)NC(C)C(=O)NC(C)C(=O)Nc1ccc([N+](=O)[O-])cc1 (centres undefined)
inactive: dose: 50.0 mg/kg/injection, schedule: Q01DX005 (ip), vehicle: saline with Tween-80 94 % of control | dose: 100.0 mg/kg/injection, schedule: Q01DX005 (ip), vehicle: saline with Tween-80 92 % of control | dose: 200.0 mg/kg/injection, schedule: Q01DX005 (ip), vehicle: saline with Tween-80 87 % of control

S=C(Nc1ccccc1)P(c1ccccc1)c1ccccc1.[Ir]
inactive: dose: 50.0 mg/kg/injection, schedule: Q01DX005 (ip), vehicle: Klucel (hydroxypropylcellulose) (HPC) 90 % of control | dose: 100.0 mg/kg/injection, schedule: Q01DX005 (ip), vehicle: Klucel (hydroxypropylcellulose) (HPC) 99 % of control | dose: 200.0 mg/kg/injection, schedule: Q01DX005 (ip), vehicle: Klucel (hydroxypropylcellulose) (HPC) 97 % of control

CCOC(=O)CNc1c2ccc(Cl)cc2nc2ccc(OC)cc12
inactive: dose: 6.25 mg/kg/injection, schedule: Q01DX009 (ip), vehicle: saline with Tween-80 97 % of control | dose: 12.5 mg/kg/injection, schedule: Q01DX009 (ip), vehicle: saline with Tween-80 104 % of control | dose: 25.0 mg/kg/injection, schedule: Q01DX009 (ip), vehicle: saline with Tween-80 111 % of control | [4] 108 % of control | [5] 104 % of control

CCN(CC)C(=O)CC(c1ccccc1)N(C)C (centres undefined)
inactive: dose: 60.0 mg/kg/injection, schedule: Q01DX005 (ip), vehicle: saline 98 % of control | dose: 120.0 mg/kg/injection, schedule: Q01DX005 (ip), vehicle: saline 87 % of control

O=C(N[C@H](CO)[C@H]1CC(Br)=NO1)C(Cl)(Cl)Cl
inactive: dose: 11.25 mg/kg/injection, schedule: Q01DX005 (ip), vehicle: distilled water + Tween-80 102 % of control | dose: 22.5 mg/kg/injection, schedule: Q01DX005 (ip), vehicle: distilled water + Tween-80 105 % of control | dose: 45.0 mg/kg/injection, schedule: Q01DX005 (ip), vehicle: distilled water + Tween-80 107 % of control | dose: 90.0 mg/kg/injection, schedule: Q01DX005 (ip), vehicle: distilled water + Tween-80 112 % of control

O=C(Oc1ccccc1)N1CCCCC1
inactive: dose: 12.5 mg/kg/injection, schedule: Q01DX001 (ip), vehicle: saline with Tween-80 95 % of control | dose: 25.0 mg/kg/injection, schedule: Q01DX001 (ip), vehicle: saline with Tween-80 99 % of control | dose: 50.0 mg/kg/injection, schedule: Q01DX001 (ip), vehicle: saline with Tween-80 106 % of control | dose: 100.0 mg/kg/injection, schedule: Q01DX001 (ip), vehicle: saline with Tween-80 104 % of control

CS(C)(O)NC(N)=O
inactive: dose: 50.0 mg/kg/injection, schedule: Q01DX005 (ip), vehicle: DMSO 121 % of control | dose: 100.0 mg/kg/injection, schedule: Q01DX005 (ip), vehicle: DMSO 119 % of control | dose: 100.0 mg/kg/injection, schedule: Q01DX005 (ip), vehicle: other 121 % of control | dose: 200.0 mg/kg/injection, schedule: Q01DX005 (ip), vehicle: DMSO 114 % of control | dose: 400.0 mg/kg/injection, schedule: Q01DX005 (ip), vehicle: DMSO 124 % of control

Nc1cc2nc3ccccc3sc-2cc1=O
inactive: [4] 112 % of control | [5] 111 % of control | [6] 113 % of control | dose: 400.0 mg/kg/injection, schedule: Q01DX009 (ip), vehicle: saline with Tween-80 89 % of control

C1=CCC(C(Nc2nncs2)Nc2nncs2)CC1 (centres undefined)
inactive: dose: 60.0 mg/kg/injection, schedule: Q01DX005 (ip), vehicle: saline with Tween-80 107 % of control | dose: 240.0 mg/kg/injection, schedule: Q01DX005 (ip), vehicle: saline with Tween-80 108 % of control

N[N+]1(CCS(N)(=O)=O)CCOCC1
inactive: [1] 110 % of control | [2] 91 % of control | [3] 96 % of control

CC(=O)N1CCN(C(C)=O)N(C(C)=O)CCN1C(C)=O
inactive: dose: 100.0 mg/kg/injection, schedule: Q04DX003 (ip), vehicle: suspension in saline 94 % of control | dose: 200.0 mg/kg/injection, schedule: Q04DX003 (ip), vehicle: suspension in saline 97 % of control | dose: 400.0 mg/kg/injection, schedule: Q04DX003 (ip), vehicle: suspension in saline 94 % of control

CCOc1cc2c(NCCCN(CCO)CCO)ncnc2c(OCC)c1OCC
inactive: [1] 101 % of control | [2] 111 % of control | [3] 101 % of control

CC(O)(CC(=O)O)CC(=O)O
inactive: dose: 25.0 mg/kg/injection, schedule: Q01DX005 (ip), vehicle: water 101 % of control | dose: 50.0 mg/kg/injection, schedule: Q01DX005 (ip), vehicle: water 100 % of control | dose: 100.0 mg/kg/injection, schedule: Q01DX005 (ip), vehicle: water 95 % of control | dose: 200.0 mg/kg/injection, schedule: Q01DX005 (ip), vehicle: water 90 % of control | dose: 400.0 mg/kg/injection, schedule: Q01DX005 (ip), vehicle: water 92 % of control

C=CC(=NC(C)(C)C)Nc1cccc(Cl)c1
inactive: dose: 6.25 mg/kg/injection, schedule: Q04DX003 (ip), vehicle: saline 98 % of control | dose: 12.5 mg/kg/injection, schedule: Q04DX003 (ip), vehicle: saline 102 % of control | dose: 25.0 mg/kg/injection, schedule: Q04DX003 (ip), vehicle: saline 100 % of control

CCC12C(=O)C(CC)(C(c3ccccc3)=C1c1ccccc1)C1OC(=O)OC12 (centres undefined)
inactive: [4] 97 % of control | [5] 91 % of control | [6] 86 % of control

Source: PubChem BioAssay AID330 (DTP/NCI, 2004)
